Measurements as given in patent publication US4742155A, “Plipastatin and method for preparation thereof” (Zaidan Hojin Biseibutsu Kagaku Kenkyu Kai, priority 1984, dated 1988).
Entries after “also recorded” stand apart in the source; their conditions may differ. Bridge positions count the residues as written; N and C are the ends. Square brackets hold non-standard residues; d marks the D form. Peptide text beside a SMILES is read from it. * marks the point of attachment. Hexadecanoyl(3R-OH) = CCCCCCCCCCCCC[C@@H](O)CC(=O)*; d(aThr) = C[C@@H](O)[C@@H](N)C(=O)O; dOrn = NCCC[C@@H](N)C(=O)O

What was measured:
[1] = test system: LPS-stimulated B-lymphocytes; assay: Reaction of B-lymphocyte blastogenesis, [3H]-thymidine uptake; assay type: cell-based, BALB/c mice; conditions: 100 μg/ml (given for Plipastatin A1; not given for B1); 100 μg/ml LPS, 72 hours
Method: (§1) This experiment illustrates the suppressive effects of Plipastatin on the reaction of lymphocyte blastogenesis.
(§2) The reaction of lymphocyte blastogenesis was evaluated in terms of the incorporation of [^3 H]-thymidine in the DNA synthesis by both T-cells and B-cells stimulated with concanavalin A (hereunder referred to as Con A) and lipopolysaccharide of E. coli 055:B5. (Reference "Meneki Jikken Sosaho", or "Immunological Experiments Manual", pp. 2267-2276, The Japanese Society for Immunology).
(§3) In the reaction of T-lymphocyte blastogenesis, the T-cells were obtained by passing spleen cells of BALB/c mice (19 weeks old) through a nylon column to remove adsorptive cells and by then cultivating the resulting spleen cells in a plastic Petri dish for one hour to eliminate the remaining adsorptive cells. The cultivation of the T-cells was conducted in wells of a Falcon microtest plate using RPMI 1640 medium containing 20% fetal bovine serum, […] of Hepes, 100 μg/ml of streptomycin and 100 U/ml of penicillin G. The T-lymphocytes (1×10^5), 5 μg/ml of Con A and PLIPASTATIN A1 or B1 were added in that order to the wells and said medium was then added to the wells to make a total of 0.2 ml. The resulting mixture was incubated for 72 hours. The mixture was pulse-labeled with [^3 H]-thymidine at 8 hours before terminating the cultivation. […]

[2] = test system: PCA (Passive Cutaneous Anaphylaxis) reactions in rats of the S-D strain; assay: PCA (Passive Cutaneous Anaphylaxis) reaction, Evans blue patch; assay type: in vivo; conditions: for Development of blue patch +, number of animals in a group of five / Development of blue patch -, number of animals in a group of five / Development of blue patch ±, number of animals in a group of five: 150 μl intradermal 5 min before challenge
Method: The experiment described below was accomplished in accordance with conventional methods. (Reference: J. Immunology, 106, 1002-1011, 1971). Rats were sensitized with egg albumin antigen to obtain an anti-serum. The rats of the S-D strain (male, 8 wk of age) were passively sensitized by intradermal injection of 50 μl of the thus obtained anti-egg albumin serum on their backs. Forty-eight hours later, each rat was challenged by the intravenous injection of physiological saline containing egg albumin (2.5 mg) plus Evans blue (2.5 mg). Sixty minutes after the injection, any development of blue dye patch due to the extravasation of Evans blue at the sensitized site was checked. Five minutes before the challenge, the test compound (150 μl) was intradermally injected at the sensitized site. DSCG (disodium cromoglycate) was used as a control.

[3] = test system: delayed-type hypersensitivity (DTH) in CDF1 mice; assay: Cell-mediated immunity: delayed-type hypersensitivity (DTH) to SRBC, footpad swelling; assay type: in vivo; conditions: for Thickness of footpad: 24 h after secondary SRBC challenge, CDF1 mice; for Percentage with respect to the control: footpad swelling, control = 100%
Description: This experiment illustrates the effects on the cell-mediated immunity in normal mice.
The activities of Plipastatin A1 and B1 on cell-mediated immunity were studied in terms of delayed-type hypersensitivity (DTH) caused by inoculating mice with antigenic sheep red blood cells (SRBC) in one footpad (Reference: J. Exp. Med., 139, 1529-1539, 1974).
CDF1 mice (female, 8 week of age) were inoculated intravenously with a suspension of 5×10^5 SRBC in physiological saline. At the same time, a single dose of an aqueous solution of 5 mg/Kg or 0.5 mg/Kg of Plipastatin A1 or B1 was administered intraperitoneally to the mice. Four days after the injection, the mice were subjected to the secondary challenge by subcutaneous injection of the other footpad with a suspension of 10^8 SRBC in physiological saline. Twenty-four hours later, the degree of footpad swelling (increasing in the thickness of the footpad) was measured with a caliper. The cell-mediated immunity suppressive effects of the test compounds were determined by comparing the degree of footpad swelling in the treated animals with the degree of footpad swelling (100%) in untreated, control animals that were subcutaneously injected in their footpads with an aqueous solution of SRBC in physiological saline in stead of the test compounds.

[4] = test system: Con A-stimulated T-lymphocytes; assay: Reaction of T-lymphocyte blastogenesis, [3H]-thymidine uptake; assay type: cell-based, BALB/c mice; conditions: 100 μg/ml (given for Plipastatin A1; not given for B1); 5 μg/ml Con A, 72 hours
Method: as §1, §2, §3

[5] = target: phospholipase D (derived from cabbage); assay: Inhibition of phospholipase D (antiphospholipase D activity, 14C-DPC); assay type: biochemical; conditions: Table 2
Description: The monitoring of the production of Plipastatin through the cultivation and purification steps is accomplished by measuring the antiphospholipase D activity in accordance with the following method.
Two layers are separated by centrifugation.

phospholipase A2 = target: phospholipase A2
Method: (§4) The measurement of the antiphospholipase D activity is carried out by the method of Okuyama et al. described in A. Okuyama, T. Nishikiori, T. Aoyagi and H. Umezawa, Biochemistry international, 4, 417, 1982. Dipalmitoylphosphatidyl choline (DPC) (200 mM) and cholin-methyl-^14 C-DPC (4×10^4 dpm) are suspended ultrasonically in 390 μl of 50 mM tris-hydrochloric acid buffer (pH 5.7) containing 1 mM calcium chloride. To the resulting suspension is added 10 μl of a solution containing the sample to be tested. To the resulting mixture is added 100 μl of a solution of commercially available phospholipase D (derived from cabbage) and reacted at 37° C. for 20 minutes. The reaction is quenched by addition of 1.5 ml of a mixture of chloroform, methanol and conc. hydrochloric acid (2:1:0.02 v/v). To this mixture is then added 1 ml of 50% methanol containing […] potassium chloride and the mixture is stirred. Two layers are separated by centrifugation. The radioactivity (a) of choline liberated from the upper layer by the enzyme is measured. Also, the radioactivity (b) of the buffer free from the sample is measured as a blank test. The percentage inhibition of phospholipase activity is calculated according to the following formula: [(b-a)/b]×100.
(§5) IC50 values correspond to the concentration of the samples giving a 50% inhibition.
(§6) The measurement of the inhibition of phospholipase was accomplished by the method of Okuyama et al. set forth above.

phospholipase C = target: phospholipase C
Method: as §4, §5, §6

Solubility = assay type: physicochemical; conditions: potassium salts (Table 1)
Method: (All measurements were carried out using potassium salts of the compounds unless otherwise specified.)

[6] = mouse, in vivo, ip

Compound: Plipastatin A1
- Suppression of uptake of [3H]-thymidine into LPS-stimulated B-lymphocytes [1]: 15%
- Development of blue patch +, number of animals in a group of five ([2]; Conc. 5.9 μM): 2
- Development of blue patch -, number of animals in a group of five ([2]; Conc. 5.9 μM): 0
- Development of blue patch ±, number of animals in a group of five ([2]; Conc. 5.9 μM): 3
- Development of blue patch +, number of animals in a group of five ([2]; Conc. 59 μM): 0
- Development of blue patch -, number of animals in a group of five ([2]; Conc. 59 μM): 4
- Development of blue patch ±, number of animals in a group of five ([2]; Conc. 59 μM): 1
- Development of blue patch +, number of animals in a group of five ([2]; Conc. 590 μM): 0
- Development of blue patch -, number of animals in a group of five ([2]; Conc. 590 μM): 5
- Development of blue patch ±, number of animals in a group of five ([2]; Conc. 590 μM): 0
- Suppressive effects on PCA reactions ([2]; intradermal injections of 590 and 59 μM): comparable to those of DSCG
- Thickness of footpad ([3]; dose 0.5 mg/Kg single i.p.): 63 ± 25 × 10^-2 mm
- Percentage with respect to the control ([3]; dose 0.5 mg/Kg single i.p.): 64%
- Thickness of footpad ([3]; dose 5 mg/Kg single i.p.): 48 ± 16 × 10^-2 mm
- Percentage with respect to the control ([3]; dose 5 mg/Kg single i.p.): 49%
- Suppression of uptake of [3H]-thymidine into Con A-stimulated T-lymphocytes [4]: 52%
- Degree of inhibition, IC50, phospholipase D [5]: 2.1 µg/mL
- Degree of inhibition, IC50, phospholipase A2 (phospholipase A2): 4.3 µg/mL
- Degree of inhibition, IC50, phospholipase C (phospholipase C): 1.9 µg/mL
- Solubility (Solubility): Soluble in water, methanol, ethanol, and dimethyl sulfoxide; also recorded: Insoluble in organic solvents such as acetone, ethyl acetate,

Compound: CCCCCCCCCCCCC[C@@H](O)CC(=O)N[C@@H](CCC(=O)O)C(=O)N[C@H](CCCN)C(=O)N[C@H]1Cc2ccc(cc2)OC(=O)[C@H]([C@@H](C)CC)NC(=O)[C@@H](Cc2ccc(O)cc2)NC(=O)[C@H](CCC(N)=O)NC(=O)[C@@H]2CCCN2C(=O)[C@@H](C(C)C)NC(=O)[C@H](CCC(=O)O)NC(=O)[C@@H]([C@@H](C)O)NC1=O [Plipastatin B1] ({Hexadecanoyl(3R-OH)}-E[dOrn]Y[d(aThr)]E[dV]PQ[dY]I; ester 3-C)
- Suppression of uptake of [3H]-thymidine into LPS-stimulated B-lymphocytes [1]: 20%
- Thickness of footpad ([3]; dose 0.5 mg/Kg single i.p.): 97 ± 44 × 10^-2 mm
- Percentage with respect to the control ([3]; dose 0.5 mg/Kg single i.p.): 99%
- Thickness of footpad ([3]; dose 5 mg/Kg single i.p.): 57 ± 31 × 10^-2 mm
- Percentage with respect to the control ([3]; dose 5 mg/Kg single i.p.): 58%
- LD50 [6]: 250 to 500 mg/kg
- Suppression of uptake of [3H]-thymidine into Con A-stimulated T-lymphocytes [4]: 54%
- Degree of inhibition, IC50, phospholipase D [5]: 2.8 µg/mL
- Degree of inhibition, IC50, phospholipase A2 (phospholipase A2): 5.2 µg/mL
- Degree of inhibition, IC50, phospholipase C (phospholipase C): 3.6 µg/mL
- Solubility (Solubility): Soluble in water, methanol, ethanol, and dimethyl sulfoxide; also recorded: Insoluble in organic solvents such as acetone, ethyl acetate,

Compound: O=C([O-])c1cc(=O)c2c(OCC(O)COc3cccc4oc(C(=O)[O-])cc(=O)c34)cccc2o1.[Na+].[Na+] [DSCG, disodium cromoglycate, reference compound]
- Development of blue patch +, number of animals in a group of five ([2]; Conc. 59 μM): 0
- Development of blue patch -, number of animals in a group of five ([2]; Conc. 59 μM): 4
- Development of blue patch ±, number of animals in a group of five ([2]; Conc. 59 μM): 1
- Development of blue patch +, number of animals in a group of five ([2]; Conc. 590 μM): 0
- Development of blue patch -, number of animals in a group of five ([2]; Conc. 590 μM): 4
- Development of blue patch ±, number of animals in a group of five ([2]; Conc. 590 μM): 1

Compound: Plipastatin B2
- Degree of inhibition, IC50, phospholipase D [5]: 3.3 µg/mL
- Degree of inhibition, IC50, phospholipase A2 (phospholipase A2): 3.5 µg/mL
- Degree of inhibition, IC50, phospholipase C (phospholipase C): 4.5 µg/mL
- Solubility (Solubility): Soluble in water, methanol, ethanol, and dimethyl sulfoxide; also recorded: Insoluble in organic solvents such as acetone, ethyl acetate,

Compound: Plipastatin A2
- Degree of inhibition, IC50, phospholipase D [5]: 3.8 µg/mL
- Degree of inhibition, IC50, phospholipase A2 (phospholipase A2): 3.4 µg/mL
- Degree of inhibition, IC50, phospholipase C (phospholipase C): 4.0 µg/mL
- Solubility (Solubility): Soluble in water, methanol, ethanol, and dimethyl sulfoxide; also recorded: Insoluble in organic solvents such as acetone, ethyl acetate,
